Source: US11130733B2, “4-OXO-alkylated tetramic acid compound, preparation method and use thereof” (BEIJING JOEKAI BIOTECH. LLC, priority 2017, dated 2021)

What was measured:
[1] = system: Salmonella typhimurium TA98; experiment: Mini Ames experiment, strain TA98; type: cell-based
Method: (§1) Histidine auxotrophic strains of Salmonella typhimurium were cultured in a special medium with quite a low content of histidine. The strains were difficult to divide due to lack of nutrition. If a test compound has mutagenicity, a large number of cells will undergo reverse mutation, synthesizing histidine by themselves and developing into colonies visible to the naked eye. In view of the close relationship between mutagenicity and carcinogenesis of chemicals, this method has been widely used in screening carcinogens. Some chemicals need metabolic activation to induce mutagenicity. Mammalian microsomal enzyme S9 can be added into the test system to eliminate the influence of metabolic activation on generation of mutagenicity.
(§2) […] Mini Ames test with compound 50561

[2] = system: Salmonella typhimurium TA100; experiment: Mini Ames experiment, strain TA100; type: cell-based
Method: as §1, §2

[3] = system: Drosophilae containing and expressing human Abeta42 gene; experiment: Pavlov's olfactory-related instantaneous memory test in Drosophila; type: in vivo; settings: test medicament 100 μM, 50 μL per 100 drosophilae, 7 consecutive days; FIG. 1 and FIG. 2
Description: Drosophila has a classical learning and memory paradigm, known as Pavlov's olfactory-related instantaneous memory. During the training program, a group of about 100 drosophilae were exposed sequentially to two odors, i.e., 3-octanol and 4-methylcyclohexanol, each odor for 60 seconds, and to fresh air for 45 seconds therebetween. During exposure to the first odor, the drosophilae were electrocuted on their feet (1.5-second pulses at 3.5-second intervals, 60V), while no electrocution was exerted during exposure to the second odor. In order to detect “instantaneous memory” (also known as “learning”), drosophilae were transferred to the selection area in the T maze immediately after training and forced to choose between the two odors. The drosophilae in each T-maze arm were then captured, anesthetized, and counted. The behavior index was calculated from the distribution of drosophilae in the T maze. […] In each experiment, the age of the control group was matched with that of the experimental group.
Pharmacodynamic evaluation of the candidate compounds: Drosophilae containing and expressing human Abeta42 gene were selected as a diseased control, and drosophilae containing but not expressing human Abeta42 gene were selected as a healthy control. The day after emergence of the drosophilae, male drosophilae were selected and fed. Starting from the third day, drosophilae were fed with a test medicament (100 μM, 50 μL per 100 drosophilae) for 7 consecutive days, 4 hours each day. The above memory test was performed on the drosophilae on the tenth day.

[4] = system: Drosophilae containing and expressing human Abeta42 gene; experiment: as above; type: in vivo; settings: FIG. 3; with increase of dosage; compared with positive compound memantine hydrochloride
[5] = TA98, With Metabolic Activation, control article 0.4 μg per well
[6] = TA100, With Metabolic Activation, control article 0.4 μg per well
[7] = TA100, Without Metabolic Activation, control article 0.2 μg per well
[8] = TA98, Without Metabolic Activation, control article 2.0 μg per well

With Nc1ccc2cc3ccccc3cc2c1 [Compound 2-AA, reference compound] as the molecule, how does the “Mean Revertants Per Well” value [1, 5] read?
Its value is 297.67.

What about the “Ratio Treated/Solvent” value [1, 5] of the same molecule?
The value was 35.72.

What about the “Mean Revertants Per Well” value [2, 6] of the same molecule?
The value was 317.67.

And the “Ratio Treated/Solvent” value [2, 6]?
Its value is 9.72.

With O=C1C=C(OCc2ccccc2F)[C@H](Cc2ccccc2)N1 [Compound 51121] as the molecule, how does the “ability to improve the learning and memory of drosophilae” value [3] read?
The value was “best ability to improve the learning and memory of drosophilae”.

What about the “dose-effect relationship to improve memory of drosophilae” value [4] of the same molecule?
The value was “eventually reaches or exceeds the level of the activity of the positive compound memantine hydrochloride”.

What does the source list for O=C1C=C(OCc2cccc3ccccc23)[C@H](Cc2ccccc2)N1 [Compound 51311]?
ability to improve the learning and memory of drosophilae [3]: best ability to improve the learning and memory of drosophilae; dose-effect relationship to improve memory of drosophilae [4]: eventually reaches or exceeds the level of the activity of the positive compound memantine hydrochloride

Which results are given for [N-]=[N+]=[N-].[Na+] [SA, reference compound]?
Mean Revertants Per Well [2, 7]: 195.33; Ratio Treated/Solvent [2, 7]: 7.92

Which results are given for CC(=O)Oc1ccc(COC2=CC(=O)N[C@H]2Cc2ccccc2)cc1 [Compound 51351]?
ability to improve the learning and memory of drosophilae [3]: best ability to improve the learning and memory of drosophilae; dose-effect relationship to improve memory of drosophilae [4]: eventually reaches or exceeds the level of the activity of the positive compound memantine hydrochloride

What does the source list for O=C1C=C(OCc2cccs2)[C@H](Cc2ccccc2)N1 [Compound 51151]?
ability to improve the learning and memory of drosophilae [3]: best ability to improve the learning and memory of drosophilae; dose-effect relationship to improve memory of drosophilae [4]: eventually reaches or exceeds the level of the activity of the positive compound memantine hydrochloride

With O=[N+]([O-])c1ccc2c(c1)Cc1ccccc1-2 [Compound 2-NF, reference compound] as the molecule, how does the “Mean Revertants Per Well” value [1, 8] read?
Its value is 421.00.

And the “Ratio Treated/Solvent” value [1, 8]?
The value was 61.61.

COc1ccc(C[C@@H]2NC(=O)C=C2OCc2ccc(OC(C)=O)cc2)cc1 [Compound 60111] was tested. Which “ability to improve the learning and memory of drosophilae” value [3] did it give?
Its value is “quite a good ability to improve learning and memory of drosophilae”.
